The source of these data is patent US10053437B2, “Salt of dicarboxylic acid compound” (Daiichi Sankyo Company, Limited, priority 2014, dated 2018).

The test system of series [1] is intestinal phosphate absorption. Kind of series: Rat 33P phosphate oral challenge test (intestinal phosphate absorption suppression test). The conditions noted are these: male SD rats, 30 mg/kg forced oral administration, serum radioactivity AUC0-60 min vs control group. It counts as in vivo. Here is the method: (Test Example) Rat ^33P Phosphate Oral Challenge Test (Intestinal Phosphate Absorption Suppression Test)
Using male SD rats (5-7 weeks old) that had been fasted on the previous day, the compound described in the Examples was suspended or dissolved in a solvent such as 0.5% methyl cellulose (3-6 mg/mL), and the thus obtained solution was administered to each rat at a dose of 30 mg/kg by forced oral administration. On the other hand, regarding a control group, the solvent was administered to each rat at a dose of 5 mL/kg. Thirty minutes after administration, a […] phosphate solution (8.3 mM NaH2PO4, 0.35 MBq/mL) was administered to the rats at a dose of 7.2 mL/kg by forced oral administration. Then, 15, 30, 60, and 120 minutes after administration, blood was collected from the jugular vein of each rat under anesthesia with isoflurane. The radioactivity in […] was measured using a liquid scintillation counter, and the AUC0-60 min was then calculated from the radioactivity value. The obtained value was defined as an amount of phosphate absorbed. The phosphate absorption-inhibiting activity of the compound was calculated according to the following expression. Phosphate absorption-inhibiting activity (%)=[…]

Series [2] can be described thus: Measurement of solubility (shaking at 37° C., UHPLC). The following applies: for solubility at 24 h / solubility at 30 min: thermodynamic from solid; for Solubility Mc pH 6.0: diluted McIlvaine buffer pH 6.0, shaking at 37° C. for 30 minutes; for Solubility diluted McIlvaine buffer pH 6.0: diluted McIlvaine buffer pH 6.0, shaking at 37° C. for 24 hours. Format: physicochemical. Here is the method:
With regard to the measurement of solubility, solubility was calculated by the following operations.
Approximately 5 mg of a sample was weighed into a test tube, and then 5 mL each solution (see below) that had previously been set at 37° C. was added to the test tube.
Using Thermomixer Comfort (a shaker) manufactured by Eppendorf, the test tube was intensively shaken at 37° C. for 30 seconds at 750 rpm, and was then left at rest for 4 minutes 30 seconds. This shaking and resting operation was repeated 5 times (30 minutes in total).
The solutions obtained 30 minutes and 24 hours after initiation of the shaking were promptly filtered through a membrane filter (pore diameter: 0.45 μm), and the obtained filtrates were each diluted with a sample solution to an appropriate concentration. The concentration of a compound in the filtrate was measured by UHPLC, and solubility was then calculated.
The following solutions were used. • JP1: 2.0 g of sodium chloride was dissolved in 7.0 mL of hydrochloric acid and water to prepare 1000 mL of a solution (pH: about 1.2). • JP2: 118 mL of a 0.2 mol/L sodium hydroxide test solution and water were added to 250 mL of a 0.2 mol/L potassium dihydrogen phosphate test solution to prepare 1000 mL of a solution (pH: about 6.8). • Water: Ultrapure water (for use in LC/MS) manufactured by Wako Pure Chemical Industries, Ltd. was used. • Mc pH 6.0: A diluted McIlvaine buffer (pH 6.0) manufactured by Kanto Chemical Co., Inc. was used. • Mc pH 7.5: A diluted McIlvaine buffer (pH 7.5) manufactured by Kanto Chemical Co., Inc. was used.
Conditions for HPLC are as follows.
Apparatus: UHPLC H-Class manufactured by Waters
Mobile phase: A: 0.01 mol/L aqueous potassium phosphate solution (pH 4.0); B: acetonitrile
Column: Acquity UPLC BEH C18, 2.1 mm ID×75 mm, particle diameter: 1.7 μm (Waters)
Column temperature: 40° C.
Detection wavelength: 220 nm

[3] abbreviates: JP2 (pH about 6.8), shaking at 37° C. for 30 minutes.
[4] abbreviates: JP2 (pH about 6.8), shaking at 37° C. for 24 hours.
Setting [5] is: shaking at 37° C. for 30 minutes.

The structures appear in SMILES notation. Values after ≈ are worked out from the molar mass of the structure shown. Structures can show the parent of a compound that is named as a salt. Where two headings read alike, the source gives them in different places.

What is called solubility is the concentration that dissolves in the medium under given conditions. On to `CCN([C@H]1CC[C@H](C(=O)O)CC1)S(=O)(=O)c1cccc(C(=O)Nc2ccc(N3CCCCC3)cc2C(=O)Nc2ccc(CCc3ccc(C(=O)O)cc3)cc2)c1` [Example 1, Disodium 4-[2-(4-{[2-({3-[(trans-4-carboxycyclohexyl) (ethyl)sulfamoyl]benzoyl}amino)-5-(piperidin-1-yl)benzoyl]amino}phenyl)ethyl]benzoate trihydrate], for which, in series [1], the “Phosphorus absorption-inhibiting activity (%)” value is 72%. The solubility at 24 h was 10.7 µg/mL in series [2] (37 °C, pH 6.8, aqueous buffer, JP2 (pH about 6.8), shaking at 37° C. for 24 hours, unit inferred, read-out: Solubility JP2) and 1.3 µg/mL in series [2] (JP1 solution (sodium chloride/hydrochloric acid in water), 37 °C, pH 1.2, simulated gastric fluid, JP1 (pH about 1.2), shaking at 37° C. for 24 hours, unit inferred, read-out: Solubility JP1). In series [2] (JP1 solution (sodium chloride/hydrochloric acid in water), 37 °C, pH 1.2, simulated gastric fluid, JP1 (pH about 1.2), shaking at 37° C. for 30 minutes, read-out: Solubility JP1), the solubility at 30 min was 1 µg/mL. The “Solubility JP2” value in series [2] (JP2 (pH about 6.8), shaking at 37° C. for 30 minutes, trihydrate) came to 40.3 µg/mL. For the same molecule, in series [2] (trihydrate), the “Solubility Mc pH 6.0” value worked out at 1.1 μg/mL. The “Solubility diluted McIlvaine buffer pH 6.0” value in series [2] (trihydrate) came to 0.1 μg/mL. Further, the Solubility water in series [2] (shaking at 37° C. for 30 minutes, trihydrate) is 949.4 µg/mL; in series [2] (shaking at 37° C. for 24 hours, trihydrate), 960.1 µg/mL.

As for `CCN([C@H]1CC[C@H](C(=O)O)CC1)S(=O)(=O)c1cccc(C(=O)Nc2ccc(N3CCCCC3)cc2C(=O)Nc2ccc(CCc3ccc(C(=O)O)cc3)cc2)c1` [Example 6, potassium sodium 4-[2-(4-{[2-({3-[(trans-4-carboxycyclohexyl)(ethyl)sulfamoyl]benzoyl}amino)-5-(piperidin-1-yl)benzoyl]amino}phenyl)ethyl]benzoate hydrate], the “Phosphorus absorption-inhibiting activity (%)” value in series [1] (hydrate, 30 mg/kg) stood at 59%. Besides, the “Solubility JP2” value in series [2] (JP2 (pH about 6.8), shaking at 37° C. for 30 minutes, hydrate) stood at 22.5 µg/mL; in series [2] (JP2 (pH about 6.8), shaking at 37° C. for 24 hours, hydrate) it was 968.5 µg/mL. In addition, the Solubility water in series [2] (shaking at 37° C. for 30 minutes, hydrate) was found to be 2.2 µg/mL; in series [2] (shaking at 37° C. for 24 hours, hydrate), 940.7 µg/mL.

Take `CCN([C@H]1CC[C@H](C(=O)O)CC1)S(=O)(=O)c1cccc(C(=O)Nc2ccc(N3CCCCC3)cc2C(=O)Nc2ccc(CCc3ccc(C(=O)O)cc3)cc2)c1` [Example 7, mono-p-toluenesulfonate of 4-[2-(4-{[2-({3-[(trans-4-carboxycyclohexyl)(ethyl)sulfamoyl]benzoyl}amino)-5-(piperidin-1-yl)benzoyl]amino}phenyl)ethyl]benzoic acid]: the “Solubility JP1” value in series [2] (JP1 (pH about 1.2), shaking at 37° C. for 30 minutes) is 0.7 µg/mL (≈ 0.896 µM). Besides, the solubility at 24 h in series [2] (JP1 solution (sodium chloride/hydrochloric acid in water), 37 °C, pH 1.2, simulated gastric fluid, JP1 (pH about 1.2), shaking at 37° C. for 24 hours, unit printed as μL, read-out: Solubility JP1) was 0.1 µg/mL (≈ 0.128 µM). The results for the “Solubility JP2” value in series [2] (setting [3]) and in series [2] (setting [4]) were 61.7 µg/mL (≈ 79 µM) and 87.5 µg/mL (≈ 112 µM), respectively. Besides, the “Solubility diluted McIlvaine buffer pH 6.0” value in series [2] worked out at 1058.4 μg/mL. Moreover, the solubility at 30 min in series [2] (diluted McIlvaine buffer pH 7.5, 37 °C, pH 7.5, aqueous buffer, diluted McIlvaine buffer pH 7.5, shaking at 37° C. for 30 minutes, read-out: Solubility Mc pH 7.5) is 639 µg/mL (≈ 819 µM). Moreover, the Solubility water in series [2] (setting [5]) and in series [2] (shaking at 37° C. for 24 hours) was 0.2 µg/mL (≈ 0.256 µM) throughout.

With `CCN([C@H]1CC[C@H](C(=O)O)CC1)S(=O)(=O)c1cccc(C(=O)Nc2ccc(N3CCCCC3)cc2C(=O)Nc2ccc(CCc3ccc(C(=O)O)cc3)cc2)c1` [Example 8, monopiperazine salt of 4-[2-(4-{[2-({3-[(trans-4-carboxycyclohexyl)(ethyl)sulfamoyl]benzoyl}amino)-5-(piperidin-1-yl)benzoyl]amino}phenyl)ethyl]benzoic acid], the solubility at 24 h in series [2] (JP1 solution (sodium chloride/hydrochloric acid in water), 37 °C, pH 1.2, simulated gastric fluid, JP1 (pH about 1.2), shaking at 37° C. for 24 hours, read-out: Solubility JP1) is 1.4 µg/mL. Besides, the “Solubility JP2” value in series [2] (setting [3]) is 105.7 µg/mL; in series [2] (setting [4]) it was 137.8 µg/mL. In series [2], the “Solubility Mc pH 6.0” value is listed as 3.3 μg/mL. In series [2], the “Solubility diluted McIlvaine buffer pH 6.0” value is recorded as 0.2 μg/mL. For the same molecule, the Solubility water in series [2] (setting [5]) is 31.7 µg/mL; in series [2] (shaking at 37° C. for 24 hours), 429.5 µg/mL.
